The subject of one test is CLK3. Description: Kinobeads competition binding: CLK3. Further details: species or system human. As to conditions: target CLK3.
The target in another test is T1, CSK (Homo sapiens, UniProt P41240).
T1 construct: endogenous in cells
Description: Kinobeads competition binding: CSK. As to conditions: target CSK.

The next test relates to MTOR. Description: Kinobeads competition binding: MTOR. Further details: species or system human. As to conditions: target MTOR.
Another test deals with MERTK. Description: Kinobeads competition binding: MERTK. Further details: species or system human. As to conditions: target MERTK.
The next test deals with T2, EPHB6 (Homo sapiens, UniProt O15197).
T2 construct: to maximize the representation of endogenous proteins; endogenous in cells
T2 sequence (O15197 32-1021): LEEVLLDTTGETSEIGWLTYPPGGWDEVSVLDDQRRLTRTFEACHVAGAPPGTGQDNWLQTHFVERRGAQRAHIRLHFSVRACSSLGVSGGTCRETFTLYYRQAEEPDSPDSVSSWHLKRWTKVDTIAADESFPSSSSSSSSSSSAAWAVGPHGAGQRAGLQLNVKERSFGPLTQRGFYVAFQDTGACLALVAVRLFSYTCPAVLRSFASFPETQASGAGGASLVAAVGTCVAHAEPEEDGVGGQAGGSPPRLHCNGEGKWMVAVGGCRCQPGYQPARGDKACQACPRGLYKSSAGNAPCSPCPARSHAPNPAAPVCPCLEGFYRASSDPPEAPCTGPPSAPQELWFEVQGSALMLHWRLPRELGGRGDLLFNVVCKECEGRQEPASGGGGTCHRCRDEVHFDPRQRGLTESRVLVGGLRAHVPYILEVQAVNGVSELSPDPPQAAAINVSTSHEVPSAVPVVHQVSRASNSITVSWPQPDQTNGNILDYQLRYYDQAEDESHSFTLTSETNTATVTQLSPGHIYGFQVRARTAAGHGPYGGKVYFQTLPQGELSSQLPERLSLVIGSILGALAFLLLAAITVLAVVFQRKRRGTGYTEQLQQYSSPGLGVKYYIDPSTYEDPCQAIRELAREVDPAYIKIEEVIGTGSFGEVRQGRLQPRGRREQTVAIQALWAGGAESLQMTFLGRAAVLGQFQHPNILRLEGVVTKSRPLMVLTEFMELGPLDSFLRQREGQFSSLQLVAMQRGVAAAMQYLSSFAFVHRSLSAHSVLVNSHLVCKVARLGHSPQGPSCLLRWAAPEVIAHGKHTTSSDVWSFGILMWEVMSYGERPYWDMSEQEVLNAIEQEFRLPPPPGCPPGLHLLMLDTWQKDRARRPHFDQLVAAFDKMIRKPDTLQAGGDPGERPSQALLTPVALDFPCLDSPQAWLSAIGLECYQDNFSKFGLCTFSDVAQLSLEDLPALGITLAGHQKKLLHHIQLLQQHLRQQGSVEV
Description: Kinobeads two-dose competition binding: EPHB6. The following applies: target EPHB6. An excerpt:
(§1) Briefly, Kinobeads comprise seven broad-spectrum small molecule kinase inhibitors immobilized on Sepharose beads. […]. Compounds of interest are set to compete for target protein binding with Kinobeads in the lysate and the amount of a given protein bound to Kinobeads in the presence of a compound can be quantified relative to a dimethylsulfoxide (DMSO) vehicle control by label-free mass spectrometry. This assay measures the physical interaction of a compound with thousands of endogenous proteins in parallel and, when systematically increasing the concentration of competitor, enables the calculation of an apparent interaction constant ( Kdapp ) for each compound and protein.
(§2) Kinobeads pulldown experiments were performed as described previously[13],[14],[17] with minor modification. […] The protein concentration was adjusted to 5 mg ml^−1. Kinase inhibitors were spiked into 0.5 ml of cell lysate at final concentrations of 100 and 1,000 nM (or DMSO, 0.3, 1, 3, 10, 30, 100, 300 and 1,000 nM for full dose experiments). […] Lysates were incubated for 45 min at 4 °C. Subsequently, lysates were incubated with Kinobeads ε (17.5 µl of settled beads) for 30 min at 4 °C. To assess the degree of protein depletion from the lysates by Kinobeads, the flow through of the DMSO control was recovered for a pulldown of pulldown experiment where the lysate was incubated a second time with fresh Kinobeads. Beads were washed in three steps with buffer containing 0.4%, 0.2% and no IGEPAL. Bound proteins were reduced with 50 mM DTT in 8 M Urea, 40 mM Tris-HCl pH 7.4 for 30 min at room temperature. After alkylation with 55 mM chloroacetamide, the urea concentration was reduced to 1–2 M and proteins were digested with trypsin. Acidified peptides were desalted and concentrated using SepPak tC18 µEluation plates (Waters). Samples were frozen, dried by vacuum centrifugation and stored at −20 °C.
(§3) Each kinase inhibitor was processed together with all DMSO controls of the same plate. Additionally, each search was supplemented with five high quality DMSO controls for consistent peptide identification and protein grouping. The resultant file (proteinGroups.txt) was used for subsequent filtering, normalization, data visualization and target annotation that was automatically performed by a data processing pipeline built in house that used R (including the ‘drc’ and ‘heatmap’ packages). First, reverse hits, potential contaminants and not quantified proteins in the DMSO control samples were discarded. Protein raw and label-free quantification intensities were normalized to the median DMSO control intensity to obtain relative residual binding intensities for each protein group at every inhibitor concentration and standard deviations of the DMSO control intensity were calculated. IC50 values were estimated based on the following equation IC50=I×100−inhibition/inhibition where [I] is the inhibitor concentration that was used for IC50 calculation and ‘inhibition’ the relative residual binding intensity. […]. Estimated Kdapp values were then calculated by multiplying the estimated IC50 values with a protein-dependent correction factor that was limited to a maximum value of one. The correction factor accounts for the depletion of a target protein from the lysate by Kinobeads. The depletion can be measured by the ratio of the amount of protein captured in two consecutive pulldowns of the same DMSO control lysate. In this study, correction factors were determined in separate experiments using the same lysate mixture and the same bead batch. Correction factors were set to the median of all correction factors. Targets of kinase inhibitors were annotated using the previously published random forest classifier. A training data set was annotated manually. […]

The subject of a further test is CDK1. Put plainly: Kinobeads competition binding: CDK1. Further details: species or system human. The following applies: target CDK1.
The subject of a further test is OPA1. Put plainly: Kinobeads competition binding: OPA1.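 Note: target engagement share of this target among all targets at its Kdapp concentration.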 Further details: species or system human. The following applies: target OPA1.
For the next test, the system named is BRAF. Description: Kinobeads competition binding: BRAF. Further details: species or system human. As to conditions: target BRAF.
The next test concerns the target T3, EPHA5 (Homo sapiens, UniProt P54756).
T3 construct: endogenous in cells
Put plainly: Kinobeads competition binding: EPHA5. As to conditions: target EPHA5. An excerpt: Supplement 41589_2023_1459_MOESM4_ESM.xlsx, sheet "CATDS matrix" | column: EPHA5

For the next test, the target named is PKN3 (Homo sapiens, UniProt Q6P5Z2). Put plainly: Kinobeads two-dose competition binding: PKN3. Further details: endogenous in cells. As to conditions: for CATDSPKN3: selectivity score from Kinobeads two-dose data.
PKN3, sequence (Q6P5Z2 whole entry): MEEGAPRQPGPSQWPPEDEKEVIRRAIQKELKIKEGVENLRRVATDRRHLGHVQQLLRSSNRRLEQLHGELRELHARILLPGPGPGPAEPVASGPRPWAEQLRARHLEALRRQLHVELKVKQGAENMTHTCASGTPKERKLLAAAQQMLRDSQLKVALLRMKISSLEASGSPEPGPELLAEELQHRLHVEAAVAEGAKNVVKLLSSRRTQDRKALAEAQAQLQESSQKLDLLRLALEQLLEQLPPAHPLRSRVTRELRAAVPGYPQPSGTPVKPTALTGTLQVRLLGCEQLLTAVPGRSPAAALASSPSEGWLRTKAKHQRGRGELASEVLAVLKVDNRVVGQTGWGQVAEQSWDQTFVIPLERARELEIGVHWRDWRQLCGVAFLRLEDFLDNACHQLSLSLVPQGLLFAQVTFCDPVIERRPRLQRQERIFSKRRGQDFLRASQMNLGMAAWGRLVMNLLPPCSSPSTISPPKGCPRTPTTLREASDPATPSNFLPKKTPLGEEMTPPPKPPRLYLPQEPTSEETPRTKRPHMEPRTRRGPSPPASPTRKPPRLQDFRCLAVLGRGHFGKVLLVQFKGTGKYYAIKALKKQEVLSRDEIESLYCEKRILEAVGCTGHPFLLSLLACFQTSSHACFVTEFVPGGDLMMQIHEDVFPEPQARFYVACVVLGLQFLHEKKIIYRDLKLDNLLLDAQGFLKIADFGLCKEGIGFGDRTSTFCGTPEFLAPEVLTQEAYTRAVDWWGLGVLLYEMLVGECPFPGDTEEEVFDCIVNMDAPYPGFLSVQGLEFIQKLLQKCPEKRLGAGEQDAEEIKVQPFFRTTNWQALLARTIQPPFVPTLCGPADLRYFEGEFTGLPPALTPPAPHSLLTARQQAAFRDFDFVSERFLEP
Text: as §1, §2, §3

Where [1] appears, read: Kinobeads two-dose, read-out: Kdapp PKN3.

Read-outs that look alike come from different tables or passages of the source.

T1 sequence (P41240 whole entry): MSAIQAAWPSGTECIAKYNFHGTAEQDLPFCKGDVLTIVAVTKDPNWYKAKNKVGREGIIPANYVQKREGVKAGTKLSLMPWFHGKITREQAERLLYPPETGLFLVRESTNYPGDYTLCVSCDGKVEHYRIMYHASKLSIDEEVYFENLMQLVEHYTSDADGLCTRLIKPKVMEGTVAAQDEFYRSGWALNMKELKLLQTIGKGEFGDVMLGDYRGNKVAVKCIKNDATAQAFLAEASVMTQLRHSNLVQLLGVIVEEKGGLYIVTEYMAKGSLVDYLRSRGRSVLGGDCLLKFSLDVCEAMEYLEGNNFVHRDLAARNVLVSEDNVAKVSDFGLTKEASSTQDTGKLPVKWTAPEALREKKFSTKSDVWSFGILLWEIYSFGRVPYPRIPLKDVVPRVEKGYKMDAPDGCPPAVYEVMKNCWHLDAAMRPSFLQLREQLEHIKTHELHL
T3 sequence (P54756 25-1037): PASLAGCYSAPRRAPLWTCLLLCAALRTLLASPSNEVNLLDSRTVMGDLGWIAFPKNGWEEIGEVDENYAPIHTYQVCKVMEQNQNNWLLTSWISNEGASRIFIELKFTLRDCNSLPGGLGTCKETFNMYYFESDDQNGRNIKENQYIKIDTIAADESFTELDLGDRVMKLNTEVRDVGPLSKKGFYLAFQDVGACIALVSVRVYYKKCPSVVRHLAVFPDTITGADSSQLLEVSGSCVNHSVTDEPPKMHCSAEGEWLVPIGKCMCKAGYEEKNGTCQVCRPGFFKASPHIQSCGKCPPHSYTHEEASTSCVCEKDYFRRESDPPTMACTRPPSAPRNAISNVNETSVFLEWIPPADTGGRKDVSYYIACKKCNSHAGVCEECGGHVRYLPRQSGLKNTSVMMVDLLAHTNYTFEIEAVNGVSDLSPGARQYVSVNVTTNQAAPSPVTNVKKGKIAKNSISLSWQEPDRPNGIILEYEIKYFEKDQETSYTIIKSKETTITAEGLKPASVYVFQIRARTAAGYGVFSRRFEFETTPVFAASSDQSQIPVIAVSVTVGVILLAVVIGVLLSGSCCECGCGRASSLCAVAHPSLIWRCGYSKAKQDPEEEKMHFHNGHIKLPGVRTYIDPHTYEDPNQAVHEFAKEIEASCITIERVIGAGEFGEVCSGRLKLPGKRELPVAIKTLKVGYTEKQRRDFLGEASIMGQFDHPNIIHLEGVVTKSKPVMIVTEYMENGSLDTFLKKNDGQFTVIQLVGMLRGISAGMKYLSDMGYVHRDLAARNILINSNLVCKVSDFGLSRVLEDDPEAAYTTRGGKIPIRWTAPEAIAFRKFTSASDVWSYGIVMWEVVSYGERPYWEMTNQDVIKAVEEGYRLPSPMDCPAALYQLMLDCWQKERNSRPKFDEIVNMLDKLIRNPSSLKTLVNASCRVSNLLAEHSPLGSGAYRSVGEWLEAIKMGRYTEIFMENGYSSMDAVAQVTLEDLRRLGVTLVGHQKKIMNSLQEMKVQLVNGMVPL

Turning to `Nc1ncnc2[nH]c(-c3ccccc3)nc12` [AH5015_KCGS], the CATDS in the test on CLK3, at CSK, with MTOR, in the test on MERTK, at EPHB6 and in the test with CDK1 was 0 each time. For the same molecule, the CATDS with OPA1 is reported as 0; in the test with BRAF, 0; at EPHA5 it was 0.02942.
With `CCN1CCN(Cc2ccc(Nc3ncc(F)c(-c4cc(F)c5nc(C)n(C(C)C)c5c4)n3)nc2)CC1` [Abemaciclib], the CATDS in the test on CLK3, on CSK, with MTOR, with MERTK, at EPHB6 and in the test with OPA1 was 0 throughout. For the same molecule, the CATDS in the test on BRAF and on EPHA5 was 0 throughout.
Turning to `CN(C)C/C=C/C(=O)Nc1cc2c(Nc3ccc(F)c(Cl)c3)ncnc2cc1O[C@H]1CCOC1` [Afatinib], the CATDS on EPHB6, with OPA1 and at EPHA5 was 0 in each case.
On to `CCc1cc2c(cc1N1CCC(N3CCOCC3)CC1)C(C)(C)c1[nH]c3cc(C#N)ccc3c1C2=O` [Alectinib], for which the CATDS in the test with CLK3, at CSK, with MTOR, in the test on MERTK, at EPHB6 and in the test with CDK1 was 0 throughout. For the same molecule, the CATDS in the test with OPA1, in the test with BRAF and on EPHA5 was 0 each time.
As for `N#CC1(c2ccc(NC(=O)c3cccnc3NCc3ccncc3)cc2)CCCC1` [Apatinib], the CATDS in the test on CLK3, on CSK, in the test on MTOR, with MERTK, on EPHB6 and in the test on CDK1 was 0 in each case. Moreover, the CATDS with OPA1, in the test on BRAF and at EPHA5 was 0 each time.
Consider `CCn1c(-c2nonc2N)nc2c(C#CC(C)(C)O)nc(OCCN)cc21` [GSK902056A], for which the potency estimated from few doses on PKN3 (setting [1]) was 1 nM. This molecule gave a CATDSPKN3 at PKN3 of 0.93.
With `CCn1c(-c2nonc2N)nc2c(C#CC(C)(C)O)nc(OCCNC)cc21` [GSK949675A], the potency estimated from few doses at PKN3 (setting [1]) is 2.5 nM. The molecule also registered a CATDSPKN3 on PKN3 of 0.86.
Consider `C[C@]12O[C@H](C[C@]1(O)CO)n1c3ccccc3c3c4c(c5c6ccccc6n2c5c31)CNC4=O` [Lestaurtinib], for which, at PKN3 (read-out: Lestaurtinib Drugmatrix value, Gene Name PKN3, one column per experiment number and replicate (R1-R3)), the potency estimated from few doses is 755 nM.
For the molecule `NCc1ccc(-c2nc(-c3ccncc3)c(-c3ccc(Cl)c(O)c3)[nH]2)cc1` [SB-476429-A], the potency estimated from few doses at PKN3 (read-out: Kdapp PKN3) is 36 nM. This molecule returned a CATDSPKN3 on PKN3 of 0.21.

These data come from publication PMC11062922 (Nature Chemical Biology, 2023).
